Results on five compounds are retold here after US9433588B2, “Delivery of submicrometer and nanometer aerosols to the lungs using hygroscopic excipients or dual stream nasal delivery” (Virginia Commonwealth Univeristy, priority 2009, dated 2016).

Where two headings read alike, the source gives them in different places. Marks after values point to notes of the source that are not given here.

For data set [1] the following is noted: cited from earlier work; for Predicted van't Hoff factor (i): Eq. (15) fit based on Ninni et al. (2000) measurements (MN) or Cinkotai (1971) correlations (NaCl).
Data set [2] is described as follows: Hygroscopic properties of drugs and excipients (saturation limits, i coefficients, hygroscopic parameter). The class given is physicochemical. The following applies: for Saturated mass fraction (mfsat): mass fraction that can be dissolved in liquid water at 25° C.; for Predicted van't Hoff factor (i): measured in this study, best fit of Eq. (15) to water activity data; for Saturated mole fraction (χsat): mole fraction that can be dissolved in liquid water at 25° C. How it is done:
It is noted that Eq. (15) has a form similar to Raoult's law and is valid for materials that may (i>1) or may not (i=1) dissociate upon dissolution. Specifically, Raoult's law provides a linear expression to describe activity coefficients at low solute concentrations, as presented by Finlay (2001). […] Furthermore, values of the i coefficients in this study are determined based on best fits to experimental data over a range of concentrations. Therefore, the application of Eq. (15) can be viewed as a physically based expression for fitting the experimental data. Finally, high accuracy is required at dilute concentrations, which have the largest impact on the final size achieved by the hygroscopic aerosol.
Experimental measurements were made in this study to determine the water activity coefficients of AS, CA, and PG. Activity coefficients for NaCl and MN were determined from the studies of Cinkotai (1971) and Ninni (2000), respectively. […] In order to represent the hygroscopic effect of molecular dissociation with a single coefficient, curve fits to the experimental data were based on Eq. (15) for a single component solution. The optimal value of i providing the best fit to the experimental data was calculated using a minimization routine. […] This limit was used to ensure accuracy of the i-values for dilute droplets, which is needed to ensure accurate estimates of final droplet size.
[formula] where m and M represent the mass (kg) and molar mass (kg/kmol) of the solute (s) and water (w). […] Based on Eq. (15), is directly impacts the activity coefficient and ρs influences the mass term in the mole fraction calculation (Eq. 17). […] This effect of initial drug or excipient loading can be taken into account as a function of the initial solute volume fraction (vfs). The resulting growth coefficient (GC1) for a single component droplet is then

Data set [3] is described as follows: Generation of submicrometer aerosol with small particle aerosol generator (SPAG) and drying gas. Format: physicochemical. The following applies: SPAG nebulized and dried; 560 nm: 0.1% solution, 7.5 and 3 L/min; 900 nm: 0.5% solution, 7 and 3 L/min. How it is done: With LFT, a heated air source is not present for aerosol size reduction, as with HFT. However, medical gases used with LFT (oxygen and helium-oxygen) are typically dry. A study was conducted to evaluate if dry medical-grade gas could be used to produce a submicrometer aerosol from a commercially available nebulizer. A small particle aerosol generator (SPAG) was employed, which functions as a jet nebulizer with an additional relatively large and inefficient drying chamber. […] Specifically, albuterol sulfate solutions were nebulized and dried using a series of nebulizer airflow conditions to produce aerosols with initial mean MMADs (and standard deviations) of 150 (5.5) nm, 560 (11.4) nm, and 900 (32.7) nm (FIG. 11). The 560 nm aerosol was generated using a 0.1% albuterol sulfate in water solution with a nebulizer gas flow rate of 7.5 L/min and a drying gas flow rate of 3 L/min. […]
Nano-sized aqueous-based drug aerosols were generated using a small particle aerosol generator (SPAG-6000, ICN Pharmaceuticals, Costa Mesa, Calif.), and were delivered through a nasal model geometry airway in the presence and absence of ECG conditions. Albuterol sulfate solutions were nebulized using a series of nebulizer airflow conditions to produce aerosols with initial mean (SD) measured size of 900 (32.7) nm. […]

Data set [4] is described as follows: Hygroscopic growth tube, CAG nanoparticle aerosols sized by cascade impactor. The following applies: Table 2. The class given is physicochemical. The protocol:
Budesonide nanoparticle aerosols were generated using the Capillary Aerosol Generator (CAG). This technology represents a generic means of producing engineered pharmaceutical nanosized particles suitable for inhalation. The CAG utilizes controlled heating of a liquid formulation passing through a capillary tube to produce nanosized dry particles exiting the capillary nozzle.
Hygroscopic growth of these nanoparticle aerosols was evaluated by passing the aerosol through a growth tube. Briefly, following nanoparticle generation the aerosols were drawn through the 29 cm hygroscopic growth tube at a flow rate of 30 L/min. The tube was held at 37° C. and 99% relative humidity (RH) to simulate expected lung conditions. The growth tube was approximately 29 cm, which is consistent with the distance from the mouth inlet to the main bronchi of an adult. Following passage through the tubular geometry the aerosols were delivered to the 10-stage MOUDI or Andersen Cascade Impactor (ACI; Graseby-Andersen Inc, Smyrna, Ga.) for particle sizing. Both the tubular geometry and the cascade impactor were placed in an environmental chamber (Espec Environmental Cabinet, Hudsonville, Mich.) to maintain constant temperature and humidity conditions. The ACI was employed following hygroscopic growth when it was expected that the aerosols produced would be in the 1-3 μm size range. For these studies, the final aerodynamic particle size distribution of the aerosol exiting the hygroscopic growth tube was determined at 28±2 L/min, and humidified co-flow air (99% RH) was supplied to the impactor. […] The mass of drug on each impaction plate was determined and used to calculate both the initial and final aerodynamic particle size distributions of the drug aerosols. The growth ratios were calculated by comparing the final size with the initial size of the nanoparticle as a measure of hygroscopic size increase.
Hygroscopic growth of these nanoparticle aerosols was evaluated by passing the aerosol through a growth tube as described in Example 1. […]

A short description of data set [5]: In vitro growth system for validation of the numerical model (CAG, growth zone, MOUDI). Format: physicochemical. How it is done: Submicrometer drug and drug-hygroscopic excipient particles were formed using a capillary aerosol generator (CAG). The capillary aerosol generation system is described and considered in detail by the previous studies of Hindle et al. (1998) and Longest et al. (2007). In the current study, the formulation was a mixture of 50% water and 50% ethanol by weight to dissolve both hydrophilic and hydrophobic drugs. This solution was heated and pumped through the CAG at a flow rate of 10 mg/s to form the spray aerosol. Single drug and drug-hygroscopic excipient particles were created experimentally for albuterol sulfate (AS), budesonide (BD), and sodium chloride (NaCl). Specifically, single component drug particles were formed using a 0.2% w/v AS solution and a 0.15% w/v BD solution, respectively. Combination drug-hygroscopic excipient particles were generated using a 0.1% AS-0.1% NaCl w/v solution and a 0.1% BD-0.1% NaCl w/v solution, respectively. The spray aerosol was allowed to dry into solid particles by passage through a 52 cm length of dry tubing (FIG. 3). Initial particle size was then assessed by connecting the tubing to a 10 stage MOUDI (MSP Corp, Shoreview, Minn.). To produce growth, the aerosol stream was combined with humidified air at T=25° C. and RH=99% sampled from an environmental cabinet. […] This length was selected to provide a residence time of approximately 0.2 s, which is consistent with the time required for an orally inhaled pharmaceutical aerosol to reach the main bifurcation of the lungs under standard inhalation conditions. Walls of the growth section were pre-wetted to simulate the wet walled conditions of the respiratory tract, which stimulates aerosol growth. The growth tube was not heated and was exposed to 24° C. room temperature air for this initial validation experiment. After exiting the growth tube, the aerosol was passed into the 10 stage MOUDI for size characterization.
In separate experiments, the temperature and humidity of the humidified air and the temperature of the aerosol mixture stream at the inlet to the condensational growth tube were measured. […]
The initial aerodynamic particle size distribution of the aerosol exiting the drying section of tubing was determined using the 10 stage MOUDI operated at 30±2 L/min, which allowed size fractionation between 50 nm and 10 μm. […] The final aerodynamic particle size distribution of the aerosol exiting the condensational growth tube was also determined using the MOUDI operated at 30±2 L/min. […] The mass of drug and excipient on each impaction plate was determined and used to calculate both the initial and final aerodynamic particle size distributions of the drug and combination aerosols. […]

With `[Cl-].[Na+]` [Sodium chloride (NaCl), Sodium chloride], the “Predicted van't Hoff factor (i)” value in data set [1] is given as 2.1^f; in data set [1] (listed as NaCl), 2.1. The “i coefficient, Raoult's law form of the equation” value in data set [1] (NaCl data of Cinkotai (1971), through mfs = 0.3) was 1.9. Besides, the “Hygroscopic parameter isρs/Ms” value in data set [2] amounted to 77.9 kmol/m^3. Further, the “Saturated mass fraction (mfsat)” value in data set [2] was 0.265.

As for “Albuterol sulfate [Albuterol sulfate (100%)]”, the “initial mean MMAD (standard deviation)” value in data set [3] was 900 (32.7) nm. The “Initial MMAD” value in data set [4] (CAG-generated albuterol nanoparticles before growth tube, n = 3-4) is on record as 380 nm. Also, the “Final MMAD (99% RH)” value in data set [4] (after 29 cm growth tube, 37° C., 99% RH) was determined as 510 nm. Moreover, the Growth ratio in data set [4] (final size compared with initial size, 29 cm growth tube, 99% RH) was 1.35. In addition, in data set [2], the “Hygroscopic parameter isρs/Ms” value came to 4.9 kmol/m^3, the “Saturated mass fraction (mfsat)” value was found to be 0.28, the Predicted van't Hoff factor (i) was 2.1 and the “Saturated mole fraction (χsat)” value is 0.012. Besides, the “Initial MMAD” value in data set [5] (at inlet to growth zone, SD in parentheses, minimum 4 trials) is given as 0.38 (0.01)^a μm. The Initial dgeo in data set [5] (calculated from MMAD and dry particle density) is listed as 0.33 μm. In data set [5] (outlet of 26 cm growth tube, about 0.2 s, 99% RH, assumed equal to the MMAD), the Final dgeo is given as 0.51 (0.04) μm. For the same compound, in data set [5] (ratio of final to initial geometric diameters), the d/do is 1.55 (0.12).

In the case of `OC[C@@H](O)[C@@H](O)[C@H](O)[C@H](O)CO` [Mannitol (MN), Mannitol], the “Predicted van't Hoff factor (i)” value in data set [1] was 1.0^e. Moreover, in data set [2], the “Hygroscopic parameter isρs/Ms” value is 8.2 kmol/m^3, the “Saturated mass fraction (mfsat)” value is given as 0.15 and the “Saturated mole fraction (χsat)” value is recorded as 0.018.

With `O=C(O)CC(O)(CC(=O)O)C(=O)O` [Citric acid (CA), Citric acid], in data set [2], the “Hygroscopic parameter isρs/Ms” value turned out to be 16.5 kmol/m^3, the “Saturated mass fraction (mfsat)” value came to 0.57, the “Predicted van't Hoff factor (i)” value is listed as 1.9^d and the “Saturated mole fraction (χsat)” value is given as 0.11.

Turning to `CC(O)CO` (centres unmarked) [Propylene glycol (PG), Propylene glycol], in data set [2], the “Hygroscopic parameter isρs/Ms” value is on record as 13.6 kmol/m^3, the “Saturated mass fraction (mfsat)” value was found to be 1.00, the “Predicted van't Hoff factor (i)” value is listed as 1.0^d and the “Saturated mole fraction (χsat)” value came to 1.00.
